# Reference: US12344623B2, “Thiazolopyridine derivatives as adenosine receptor antagonists” (Merck Patent GmbH, priority 2019, dated 2025)
# Columns and labels:
# human A3 receptor = target: T1, human A3 receptor (Homo sapiens, UniProt P0DMS8); assay: Functional A3 receptor activity, recombinant CHO cells, cAMP (HTRF), forskolin, agonist IB-MECA; type: cell-based; conditions: recombinant CHO cells, forskolin, agonist IB-MECA; read-out: Functional A3 receptor activity, CHO, cAMP, IC50
# T1 construct: expressed in transfected cells; host or cells: CHO
# T1 sequence (P0DMS8 1-318): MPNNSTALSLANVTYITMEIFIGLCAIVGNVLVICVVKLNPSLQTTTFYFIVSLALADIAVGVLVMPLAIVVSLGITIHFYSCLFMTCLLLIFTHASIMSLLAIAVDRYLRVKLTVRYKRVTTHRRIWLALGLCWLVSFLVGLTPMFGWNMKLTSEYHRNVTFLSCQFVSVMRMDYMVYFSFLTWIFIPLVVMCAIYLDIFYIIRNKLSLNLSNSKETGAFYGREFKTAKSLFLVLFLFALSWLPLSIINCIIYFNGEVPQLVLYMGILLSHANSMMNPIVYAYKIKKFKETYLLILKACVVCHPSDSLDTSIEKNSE
# In short: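 Gi-coupled readout: CHO cells expressing human A1 or A3 receptor were treated with forskolin, test compound and agonist (CPA for A1, IB-MECA for A3) for 30 min; cellular cAMP was then measured by HTRF. Data were normalized to inhibitor and DMSO controls and curve-fitted.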
# [1] = Pharmacokinetic properties in mouse after single intravenous and oral administration; type: in vivo
# Protocol: The objective of the study was to obtain information on the pharmacokinetic properties of the compounds of the present invention in female Wistar rats/mice following single intravenous and oral administration.
# Female Wistar rats/mice (n=6) received either a single intravenous (bolus) injection or an oral administration (by gavage) of the tested compound. Doses of 0.2 and 10 mg/kg (per compound) were given intravenously and per os, respectively, as a solution in DMSO (0.2%)/PEG 200 (40%)/water for iv administration and as a suspension in Methocel (0.5%)/Tween 20 (0.25%) in water for oral dosing. Consecutive blood samples were taken sub-lingually under isoflurane inhalation from 3 animals per route of administration after 0.1 (only iv), 0.25 (only po), 0.5, 1, 2, 4, 6 and 24 h and were further processed to obtain plasma. Also, urine and feces samples of 3 rats per route of administration were collected over the time interval from 0-24 h and were pooled for analysis.
# The concentrations of the compounds in plasma, feces were quantified using an UPLC method with tandem mass spectrometric detection (LC-MS/MS) previously developed at the ‘Institute of Drug Metabolism and Pharmacokinetics’. The LCMS/MS system consisted of a Waters Acquity UPLC coupled to an AB Sciex mass spectrometer API 5500 Q-trap. The UPLC separation was carried out on a reversed phase column (HSS T3, […], 2.1×50 mm) using a mobile phase gradient with 0.1% formic acid and acetonitrile as eluents. The detection of the compounds was performed using multiple reaction monitoring in the positive ionization mode. Plasma samples were spiked with internal standard (20 μl) and the analyte was extracted from the matrix using tertiary-butyl methyl ether (tBME). The organic phase was evaporated to dryness under a stream of nitrogen. The residue was dissolved in acetonitrile/0.1% formic acid for LC-MS/MS analysis. Feces samples were homogenized with 4-times their volume of an ethanol/water mixture (4:1, v/v). Aliquots of the aqueous-ethanolic extracts were spiked with internal standard, diluted with acetonitrile/water (1:1, v/v) and directly injected into the LC-MS/MS system.
# Pharmacokinetic parameters Cmax and tmax were taken from the observed data. […] AUC values were calculated by non-compartmental analysis using the linear up/log down method. Numerical data for mean plasma concentrations and derived pharmacokinetic parameters were rounded to 3 significant digits for presentation.
# mouse Pan T cells = assay: mTcell assay, cAMP, agonist NECA; type: cell-based; conditions: mouse Pan T cells, agonist NECA 1 uM
# In short: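 Mouse splenic Pan T cells, pre-activated 48 hours with anti-CD3/CD28 beads, then plated at 50,000 cells/well in serum-free medium with 0.1% BSA. Compounds tested in 10-point dose response from 10 uM; after 30 minutes at 37° C, cAMP measured by HTRF.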
# human A2A receptor = human A2A receptor (Homo sapiens, UniProt P29274); assay: Human T cells, endogenous A2A receptor, cAMP, agonist NECA; type: cell-based; conditions: read-out: hTcell data, cAMP, IC50
# In short: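 Pan T cells isolated from fresh human blood PBMC, endogenously expressing Gs-coupled A2A, treated with compounds. Cellular cAMP measured by HTRF after 1 h; data normalized to inhibitor control and DMSO neutral control, then curve-fitted.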
# human A2A receptor, sequence (P29274 whole entry): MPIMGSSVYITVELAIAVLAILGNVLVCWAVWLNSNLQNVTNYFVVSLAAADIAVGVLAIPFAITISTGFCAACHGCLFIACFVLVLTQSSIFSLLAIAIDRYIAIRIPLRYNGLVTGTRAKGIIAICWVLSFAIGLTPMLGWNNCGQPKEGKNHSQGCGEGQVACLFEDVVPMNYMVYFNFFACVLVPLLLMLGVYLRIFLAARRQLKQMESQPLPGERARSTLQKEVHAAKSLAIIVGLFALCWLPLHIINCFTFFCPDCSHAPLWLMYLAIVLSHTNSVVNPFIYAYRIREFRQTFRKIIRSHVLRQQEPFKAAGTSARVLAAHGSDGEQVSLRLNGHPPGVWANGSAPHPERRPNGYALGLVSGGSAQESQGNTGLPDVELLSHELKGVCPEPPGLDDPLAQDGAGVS
smiles,measurement,setting,value
"COc1ncc(C2=CCOCC2)c2sc(NC(=O)N3CC[C@@]4(CCCOC4)C3)nc12 [Compound 25, (S)-7-Oxa-2-aza-spiro[4.5]decane-2-carboxylic acid [7-(3,6-dihydro-2H-pyran-4-yl)-4-methoxy-thiazolo[4,5-c]pyridin-2-yl]-amide]",IC50,human A3 receptor,> 1000 nM
same,Feces iv,"[1]; @0.2 (mg/kg), % of dose excreted in feces",22@0.2%
same,clearance,"[1]; female, plasma, 0.2 mg/kg",77.5 mL/min/kg
same,Cmax,"[1]; female, plasma, 0.2 mg/kg, dose-normalized to 1 mg/kg",500 ng/mL
same,Vd,"[1]; female, plasma, 0.2 mg/kg, read-out: Vss",3.16 L/kg
same,half-life,"[1]; female, plasma, 0.2 mg/kg, read-out: t½ (converted)",54.6 min
same,IC50,mouse Pan T cells,< 10 nM
same,IC50,human A2A receptor,< 10 nM
